Data from article PMC6285983, “Novel broad spectrum virucidal molecules against enveloped viruses” (PLoS ONE, 2018).

Columns and labels:
HSV-2 = HSV-2 plaquing efficiency assay, compound preincubated with virus 1 h at 37°C; format: cell-based; conditions: Human alphaherpesvirus 2, HSV-2, Vero cells, 1 h pre-incubation virus/compound; for EC50: plaques at 24 h, read-out: EC50 (95% C.I.); for EC90: read-out: EC90 (95% C.I.)
[1] = Cell viability MTS assay on Vero cells; conditions: African green monkey, CC50, Vero cells, MTS
[2] = test system: HSV-2 acyclovir resistant strain; assay: microbe, parasite or virus in culture; format: cell-based; conditions: Human alphaherpesvirus 2
in vitro = conditions: African green monkey
[3] = In vitro lipoperoxidation test (TBA assay, MDA); conditions: 0.05% w/w added to liposomes, exposure to compound 9d

Compound | EC50 (HSV-2) | EC90 (HSV-2) | melting point | CC50 [1] | EC50 [2] | CC50 (in vitro) | reduction of the peroxidation of linoleic acid [3]
O=C(O)c1ccc(-c2ccc(/C=C3\SC(=S)N(CCc4c[nH]c5ccccc45)C3=O)o2)cc1O [Compound 9a, (Z)-4-(5-((3-(2-(1H-Indol-3-yl)ethyl)-4-oxo-2-thioxothiazolidin-5-ylidene)methyl)furan-2-yl)-2-hydroxybenzoic acid] | 0.63 µM | 2.05 µM | 254 °C (dec.) | 291 µM |  |  | 
Nc1nc2c(ncn2COCCO)c(=O)[nH]1 [acyclovir, reference compound] |  |  |  |  | 319 µM |  | 
O=C1NC(=S)N(Cc2ccccc2)C(=O)/C1=C\c1ccc(-c2ccc(C(=O)O)c(O)c2)o1 [Compound 15a, (Z)-4-(5-((1-benzyl-4,6-dioxo-2-thioxotetrahydropyrimidin-5(2H)-ylidene)methyl)furan-2-yl)-2-hydroxybenzoic acid] | 1.03 µM | 57.1 µM |  |  |  | > 300 µM | 
O=C1NC(=S)N(CCc2ccccc2)C(=O)/C1=C\c1ccc(-c2ccc(C(=O)O)c(O)c2)o1 [Compound 15b, (Z)-4-(5-((4,6-dioxo-1-phenethyl-2-thioxotetrahydropyrimidin-5(2H)-ylidene)methyl)furan-2-yl)-2-hydroxybenzoic acid] | 0.0484 µM | 10.9 µM |  |  |  | > 300 µM | 
O=C1/C(=C/c2ccc(-c3cc(C(F)(F)F)ccc3Cl)o2)SC(=S)N1Cc1ccc(F)cc1 [Compound 9e, (Z)-5-((5-(2-chloro-5-(trifluoromethyl)phenyl)furan-2-yl)methylene)-3-(4-fluorobenzyl)-2-thioxothiazolidin-4-one] | 0.767 µM | 5.74 µM |  | > 300 µM |  |  | 
COc1ccc(CCN2C(=O)/C(=C/c3ccc(-c4ccc(C(=O)O)c(O)c4)o3)SC2=S)cc1 [Compound 9c, (Z)-2-hydroxy-4-(5-((3-(4-methoxyphenethyl)-4-oxo-2-thioxothiazolidin-5-ylidene)methyl)furan-2-yl)benzoic acid] | 0.06 µM | 0.145 µM | 265 °C (dec.) | 9.87 µM |  |  | 
O=C(O)c1ccc(-c2ccc(/C=C3\SC(=S)N(CCc4ccc(Br)cc4)C3=O)o2)cc1O [Compound 9b, (Z)-4-(5-((3-(4-bromophenethyl)-4-oxo-2-thio-oxothiazolidin-5-ylidene)methyl)furan-2-yl)-2-hydroxybenzoic acid] | 0.12 µM | 0.404 µM | 275 °C (dec.) | 13.5 µM |  |  | 
(±)-α-tocopherol [reference compound] |  |  |  |  |  |  | 50.5%
